Data on eleven compounds can be found in US9675064B2, “Microbicidal composition” (Dow Global Technologies LLC, priority 2013, dated 2017).

Read-outs that look alike come from different tables or passages of the source.

Assay type in all cases: cell-based
One experiment relates to any organism tested. Put plainly: Synergy index test, summary statements over the organisms tested. As to conditions: for Synergy of biocide paired with surfactant: against any organism tested; for ratio of surfactant to biocide where synergy was observed: not commercially relevant (less biocide relative to surfactant). Here is the method:
Surfactants and biocides were evaluated for synergy by determining the synergy index (S.I.) of the combination. Synergy index was calculated based on minimum inhibitory concentrations (MIC) of two antimicrobial compounds (A and B) alone and in combinations. The tests organisms were Gram negative bacteria (Pseudomonas aeruginosa ATCC #15442), Gram positive bacteria (Staphylococcus aureus ATCC #6538), yeast (Candida albicans ATCC#10203) and mold (Aspergillus niger ATCC#16404). Contact time for the bacteria was 24 and 48 hours, yeast was 48 and 72 hrs, and 3 and 7 days for mold. The test was carried out in 96 well microtiter plates. R^1O(CH2CH(CH3)O)5(CH2CH2O)9H, Surf. A where R^1 is 2-ethylhexyl R^2O(CH2CH(CH3)O)3(CH2CH2O)5H Surf. D R^2O(CH2CH(CH3)O)3(CH2CH2O)7H Surf. E In Surf. D and Surf. E, R^2 is a mixture of C8-C14 linear alkyl groups (70% C8-C10 linear alkyl and 30% C12-C14 linear alkyl)
SI is calculated as follows: Ca/CA+Cb/CB=Synergy Index (“SI”)
Wherein: • CA=concentration of compound A in ppm, acting alone, which produced an end point (MIC of Compound A). • Ca=concentration of compound A in ppm, in the mixture, which produced an end point. • CB=concentration of compound B in ppm, acting alone, which produced an end point (MIC of Compound B). • Cb=concentration of compound B in ppm, in the mixture, which produced an end point. When the sum of Ca/CA and Cb/CB is greater than one, antagonism is indicated.

Experiment [1] concerns Staphylococcus aureus ATCC #6538. Nature of the experiment: MIC / synergy index test in 96 well microtiter plates, Gram positive bacteria. As to conditions: for CB (MIC of compound B acting alone): S. aureus ATCC# 6538, 24 hrs. Here is the method: (§1) Surfactants and biocides were evaluated for synergy by determining the synergy index (S.I.) of the combination. Synergy index was calculated based on minimum inhibitory concentrations (MIC) of two antimicrobial compounds (A and B) alone and in combinations. The tests organisms were Gram negative bacteria (Pseudomonas aeruginosa ATCC #15442), Gram positive bacteria (Staphylococcus aureus ATCC #6538), yeast (Candida albicans ATCC#10203) and mold (Aspergillus niger ATCC#16404). Contact time for the bacteria was 24 and 48 hours, yeast was 48 and 72 hrs, and 3 and 7 days for mold. The test was carried out in 96 well microtiter plates. […] E In Surf. D and Surf. […] [table] […] SI is calculated as follows: Ca/CA+Cb/CB=Synergy Index (“SI”) Wherein: • CA=concentration of compound A in ppm, acting alone, which produced an end point (MIC of Compound A). • Ca=concentration of compound A in ppm, in the mixture, which produced an end point. • CB=concentration of compound B in ppm, acting alone, which produced an end point (MIC of Compound B). • Cb=concentration of compound B in ppm, in the mixture, which produced an end point. When the sum of Ca/CA and Cb/CB is greater than one, antagonism is indicated.

For experiment [2], the system named is Aspergillus niger ATCC#16404. Put plainly: MIC / synergy index test in 96 well microtiter plates, mold. Conditions: A. niger ATCC#16404, 3rd day, Media PDB; for MIC: Aspergillus niger, ATCC16404, read-out: CB (MIC of compound B acting alone), B: Potassium Sorbate. Here is the method:
as §1

Experiment [3] deals with Pseudomonas aeruginosa ATCC #15442. Nature of the experiment: MIC / synergy index test in 96 well microtiter plates, Gram negative bacteria. The method, then: as §1
Experiment [4] deals with Candida albicans ATCC#10203. Nature of the experiment: MIC / synergy index test in 96 well microtiter plates, yeast. As to conditions: for MIC: Candida albicans, ATCC10203, 48 h. Here is the method: as §1

For `CCC12COCN1COC2` [CS-1246], the “Synergy of biocide paired with surfactant” value (shortened to “Synergy of biocide paired”) in the experiment on any organism tested (paired with Surf. D) is given as “no synergy”.

For the compound `CCCCCCCCCC[N+](C)(C)CCCCCCCCCC.[Cl-]` [DIDAC], the “ratio of surfactant to biocide where synergy was observed” value (“ratio of surfactant” for short) in the experiment on any organism tested (combination with Surf. A) and in the experiment on any organism tested (combination with Surf. D) was 1:0.2 or greater each time.

In the case of `CC1(C)C(=O)N(CO)C(=O)N1CO` [DMDMH], the “Synergy of biocide paired” value in the experiment on any organism tested (paired with Surf. D) and in the experiment with any organism tested (paired with Surf. E) was “no synergy” throughout.

Regarding `CCCCNC(=O)OCC#CI` [IPBC], the “ratio of surfactant” value with any organism tested (combination with Surf. A) is listed as 1:0.2 or greater; in the experiment on any organism tested (combination with Surf. D), 1:0.05 or worse; in the experiment on any organism tested (combination with Surf. E), 1:0.2 or greater.

As for `Cn1sc2ccccc2c1=O` [MBIT], the “ratio of surfactant” value in the experiment with any organism tested (combination with Surf. D) is recorded as 1:0.05 or worse.

For the compound `CCCCCCCCn1sccc1=O` [OIT], the “ratio of surfactant” value in the experiment with any organism tested (combination with Surf. D) and in the experiment on any organism tested (combination with Surf. E) was 1:0.2 or greater each time.

`Oc1ccccc1-c1ccccc1` [OPP]: the “Synergy of biocide paired” value in the experiment on any organism tested (paired with Surf. D) is “no synergy”.

Take `C/C=C/C=C/C(=O)[O-].[K+]` [Potassium Sorbate]: the “CB (MIC of compound B acting alone)” value in experiment [1] (B: Potassium Sorbate, Media 1/10TSB, inoculum 1.808E+06 CFU/ml) is given as 30000 ppm. In addition, the MIC in experiment [1] (Staphylococcus aureus, ATCC6538, 24 h, read-out: CB (MIC of compound B acting alone)) was 30000 mg/L; in experiment [2] (inoculum 1.156E+06 (table with Surf. D)), 6000 mg/L; in experiment [2] (inoculum 1.156E+06 CFU/ml (table with Surf. A)), 1000 mg/L; in experiment [2] (inoculum 1.156E+06 CFU/ml (table with Surf. E)), 1000 mg/L; in experiment [3] (Pseudomonas aeruginosa, ATCC15442, 24 h, read-out: CB (MIC of compound B acting alone)) it was 15000 mg/L; in experiment [4] (read-out: CB (MIC of compound B acting alone), B: Potassium Sorbate, C. albicans ATCC#10203, Media PDB, inoculum 1.156E+06 CFU/ml) it was 800 mg/L. Also, the MIC in experiment [4] (read-out: CB (MIC of compound B acting alone), B: Potassium Sorbate, C. albicans ATCC#10203, Media PDB, inoculum 1.808E+06 CFU/ml) worked out at 600 mg/L; in experiment [4] (read-out: CB (MIC of compound B acting alone), B: Potassium Sorbate, C. albicans ATCC#10203, Media PDB, inoculum 5.726E+05 CFU/ml) it was 1200 mg/L.

On to `O=C([O-])c1ccccc1.[Na+]` [Sodium Benzoate], for which the “CB (MIC of compound B acting alone)” value is 30000 ppm in experiment [1] (B: Sodium Benzoate, Media 1/10 TSB, inoculum 1.808E+05); 30000 ppm in experiment [1] (B: Sodium benzoate, Media 1/10TSB, inoculum 1.808E+06 CFU/ml); 5998 ppm in experiment [2] (B: Sodium Benzoate, inoculum 1.156E+06); 14991 ppm in experiment [3] (B: Sodium Benzoate, Ps. aeruginosa ATCC#15442, 48 hrs, Media 1/10TSB, inoculum 5.727E+07 CFU/ml); 1200 ppm in experiment [4] (B: Sodium Benzoate, C. albicans ATCC#10203, 48 hrs, Media PDB, inoculum 5.726E+05 CFU/ml). The “Synergy of biocide paired” value with any organism tested (paired with Surf. A) was “no synergy”.

For `O=[N+]([O-])C(CO)(CO)CO` [TRIS NITRO], the “Synergy of biocide paired” value in the experiment with any organism tested (paired with Surf. A) is “no synergy”.

With `CCCCCCCCCCCCCC[P+](CCCC)(CCCC)CCCC.[Cl-]` [TTPC], in the experiment with any organism tested (combination with Surf. E), the “ratio of surfactant” value is listed as 1:0.2 or greater.
